Data reported in US8716012B2, “Alpha thymosin peptides as vaccine enhancers” (priority 2009, dated 2014).

Key:
[1] = Safety and tolerability observations in ferrets; assay type: in vivo; settings: TA1 0.285 or 0.570 mg/kg/dose s.c.
Experimental: The vaccine (either Agrippal influPozzi seasonal vaccine, non-adjuvanted, or Fluad, MF-59 adjuvanted) was administered via intramuscular injection to the right leg at a full human dose of 0.5 mL. TA1 (0.285 or 0.570 mg/kg/dose) was administered by the subcutaneous route at a dose volume that, using a scaling factor for ferret/human dosing, corresponding to approximate human doses of […]. Animals were observed twice daily for mortality, general health, and both local and systemic signs of toxicity and illness as well as behavior under the responsibility of a professional veterinarian. Body weights were recorded prior to dosing only.

[2] = cited from earlier work
[3] = CD-1 mice; TA1 0.3, 0.6 or 1.2 mg/kg/dose i.p. with Fluvirin
[4] = doses as high as 800 times the recommended human dose; cited from earlier work
[5] = more than 3,000 patients (adults, elderly, children); cited from earlier work

**Q.** With “Ac-SDAAVDTSSEITTKDLKEKKEVVEEAEN-OH [TA1]” as the substance, how does the cage-side observations [1] read?
**A.** no cage-side observations were noted

**Q.** And the safety and tolerability [1]?
**A.** safe and well-tolerated

**Q.** And the Peak plasma levels ([2]; after injection of 3.2 mg of TA1 (about 40 μg/kg))?
**A.** approximately 100 ng/ml

**Q.** What about the “half-life of TA1 in the circulation” value ([2]; in vivo) of the same substance?
**A.** about 2 hours

**Q.** What about the plasma half-life ([2]; subcutaneously injected TA1) of the same substance?
**A.** about two

**Q.** And the “clinical/cageside observations or body weight effects” value [3]?
**A.** no test article-related clinical/cageside observations or body weight effects

**Q.** And the survival [3]?
**A.** All animals survived until scheduled termination

**Q.** What about the “adverse clinical signs in animal studies” value [4] of the same substance?
**A.** no evidence of adverse clinical signs

**Q.** And the “drug-related side effects in clinical studies” value [5]?
**A.** virtually no drug-related side effects
